Data published in patent publication US8975264B2, “Compound acting as a cannabinoid receptor-1 inhibitor” (Amorepacific Corporation, priority 2010, dated 2015).

The compounds below were run against human CB1 (cannabinoid receptor 1) (Homo sapiens, UniProt P21554) (assay: CB1 receptor inhibition effect: calcium ion influx assay (Fluo-4 NW) in Chem-1 cells after 1 μM R-(+)-WIN55212-2). Conditions: calcium ion influx in Chem-1 cells expressing human CB1, 1 μM R-(+)-WIN55212-2.
Format: cell-based
Description: When cells in which the cannabinoid receptor 1 (CB1) is stably expressed are treated with a CB1 receptor agonist, the CB1 receptor is activated and influx of calcium ions into the cells increases. CB1 receptor inhibition effect of a test compound can be evaluated by measuring the degree of calcium influx inhibition after treating with the test compound.
First, Chem-1 cells (Chemicon International, #HTS019C) in which human CB1 cDNA is expressed stably were seeded onto a 96-well cell culture plate at a density of ˜50,000 cells/well and incubated overnight in a 5% CO2 incubator at 37° C. The next day, the culture medium was discarded and the cells were cautiously washed once using an assay buffer (HBSS containing 20 mM HEPES and 2.5 mM probenecid) with 200 μL/well. Calcium ion influx was measured using an assay kit (Fluo-4 NW calcium assay kit: Molecular Probes™, #F36206) according to the manufacturer's instructions. The compounds of Examples of desired concentration to be measured were comprised to 0.5% DMSO. For control, only 0.5% DMSO was used without the compounds of Examples. Reaction time was 10 minutes. After treating the Chem-1 cells stably expressing the CB1 receptor with 1 μM R-(+)-WIN55212-2 (Sigma, #W102), a CB1 receptor agonist, calcium ion (Ca^2+) flux induced thereby was measured for 80 seconds using Flex Station 3 (Molecular Device, USA).
The difference in calcium ion concentration of the cells treated with the compounds of Examples or those treated with 1 μM R-(+)-WIN55212-2 was obtained from the difference of the maximum and minimum values during the 80 seconds. Then, % inhibition of the compounds for the CB1 receptor was calculated using the following equation. % inhibition={1−(ΔRFUcompound−ΔRFUBlank)/(ΔRFUControl−ΔRFUBlank)}×100 [Equation]
ΔRFU: maximum relative fluorescence units−minimum relative fluorescence units
ΔRFUCompound: difference in maximum and minimum RFUs in the well where the compounds of Examples dissolved in DMSO to a final concentration of 0.5% and 1 μM R-(+)-WIN55212-2 dissolved in DMSO to a final concentration of 0.5% were added
ΔRFUBlank: difference in maximum and minimum RFUs in the well to which only 1% DMSO was added
ΔRFUControl: difference in maximum and minimum RFUs in the well where 0.5% DMSO and 1 μM R-(+)-WIN55212-2 dissolved in DMSO to a final concentration of 0.5% were added

Chain of human CB1 (cannabinoid receptor 1) (P21554 whole entry): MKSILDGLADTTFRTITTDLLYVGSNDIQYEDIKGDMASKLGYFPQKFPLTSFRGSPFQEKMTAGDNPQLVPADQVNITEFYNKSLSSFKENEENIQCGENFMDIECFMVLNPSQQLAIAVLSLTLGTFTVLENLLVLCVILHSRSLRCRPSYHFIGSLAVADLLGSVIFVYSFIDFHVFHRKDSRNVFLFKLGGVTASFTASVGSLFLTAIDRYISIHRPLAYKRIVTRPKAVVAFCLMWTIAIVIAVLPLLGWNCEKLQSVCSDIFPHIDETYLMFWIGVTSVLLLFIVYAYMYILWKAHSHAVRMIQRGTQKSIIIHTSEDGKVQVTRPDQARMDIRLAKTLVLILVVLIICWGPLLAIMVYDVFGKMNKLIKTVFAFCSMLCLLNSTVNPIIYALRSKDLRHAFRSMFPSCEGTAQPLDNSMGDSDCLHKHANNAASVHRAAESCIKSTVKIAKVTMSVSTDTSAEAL

IC50 [µM]	SMILES
0.31	Cc1nn2c(-c3ccc(F)cc3)cc(N3CCC[C@H]3CO)nc2c1-c1ccc(Cl)c(Cl)c1 [Example 96]
0.01	CCOCc1nn2c(-c3cccc(C(F)(F)F)c3)cc(N(C)CCO)nc2c1-c1ccc(C)cc1 [Example 241]
0.18	CCOc1ccc(-c2c(C)nn3c(-c4ccc(F)c(F)c4)cc(N4CCC[C@H]4CO)nc23)cc1 [Example 48, (S)-{1-[7-(3,4-difluorophenyl)-3-(4-ethoxyphenyl)-2-methylpyrazolo[1,5-a]pyrimidin-5-yl)pyrrolidin-2-yl)methanol]
0.21	Cc1ccc(-c2c(C)nn3c(-c4ccc(F)c(Cl)c4)cc(N4CCC[C@H]4CO)nc23)cc1F [Example 185]
0.01	CCOCc1nn2c(-c3cccc(F)c3)cc(N(C)CCO)nc2c1-c1ccc(C)cc1 [Example 240]
0.14	COc1ccc(-c2c(C)nn3c(-c4ccccc4)cc(N4CCC[C@H]4CO)nc23)cc1 [Example 37, (S)-(1-(3-(4-methoxyphenyl)-7-phenyl-2-methylpyrazolo[1,5-a]pyrimidin-5-yl)pyrrolidin-2-yl)methanol]
0.16	CCCOc1ccc(-c2c(C)nn3c(-c4ccc(F)cc4)cc(N4CCC[C@H]4CO)nc23)cc1 [Example 74]
0.051	Cc1nn2c(-c3ccc(F)c(F)c3)cc(N3CCC[C@H]3CO)nc2c1-c1ccc(Cl)cc1 [Example 21]
0.016	CCOCc1nn2c(-c3cccc(C(F)(F)F)c3)cc(N(C)CCO)nc2c1-c1ccc(OC)cc1 [Example 247]
0.69	Cc1ccc(-c2cnn3c(-c4ccc(F)c(F)c4)cc(N4CCC[C@H]4CO)nc23)cc1 [Example 272]
0.15	Cc1ccc(-c2c(C)nn3c(-c4ccc(F)c(F)c4)cc(N4CCC[C@H]4CO)nc23)cc1F [Example 184]
0.35	CCCc1ccc(-c2c(C)nn3c(-c4ccc(F)cc4)cc(N4CCC[C@H]4CO)nc23)cc1 [Example 72]
0.039	COc1cccc(-c2cc(N3CCC[C@H]3CO)nc3c(-c4ccc(C)cc4)c(C)nn23)c1 [Example 25, (S)-(1-(3-(4-methylphenyl)-7-(3-methoxyphenyl)-2-methylpyrazolo[1,5-a]pyrimidin-5-yl)pyrrolidin-2-yl)methanol]
0.44	CCOCc1nn2c(-c3ccc(F)cc3)cc(N(C)CCO)nc2c1-c1ccc(OC)cc1 [Example 245]
0.077	Cc1nn2c(-c3cccc(F)c3)cc(N3CCC[C@H]3CO)nc2c1-c1ccc(C(F)F)cc1 [Example 114]
0.16	Cc1cc(-c2c(C)nn3c(-c4ccc(F)cc4)cc(N4CCC[C@H]4CO)nc23)ccc1F [Example 101]
0.053	CCOCc1nn2c(-c3ccc(F)cc3)cc(N3CCC[C@H]3CO)nc2c1-c1ccc(OC)cc1 [Example 209]
0.16	Cc1ccc(-c2c(C)nn3c(-c4ccc(C)cc4)cc(N4CCC[C@H]4CO)nc23)cc1 [Example 30]
0.07	CCOc1ccc(-c2c(C)nn3c(-c4cccc(C(F)(F)F)c4)cc(N4CCC[C@H]4CO)nc23)cc1 [Example 124]

IC50 [µM]	SMILES
0.13	COc1cccc(-c2cc(N3CCC[C@H]3CO)nc3c(-c4ccc(C)c(F)c4)c(C)nn23)c1 [Example 183]
0.11	CCc1nn2c(-c3cccc(F)c3)cc(N3CCC[C@H]3CO)nc2c1-c1ccc(C)cc1 [Example 200]
0.12	COc1cccc(-c2cc(N3CCC[C@H]3CO)nc3c(-c4ccc(C(F)F)cc4)c(C)nn23)c1 [Example 178]
0.16	CCc1ccc(-c2c(C)nn3c(-c4cccc(F)c4)cc(N4CCC[C@H]4CO)nc23)cc1 [Example 116]
0.009	COCc1nn2c(-c3cccc(F)c3)cc(N(C)CCO)nc2c1-c1ccc(Cl)cc1 [Example 261]
0.12	Cc1ccc(-c2c(C)nn3c(-c4ccccc4)cc(N4CCC[C@H]4CO)nc23)cc1 [Example 28]
0.094	Cc1nn2c(-c3ccc(F)cc3)cc(N3CCC[C@H]3CO)nc2c1-c1ccc(C(F)F)cc1 [Example 67]
0.24	CCOc1ccc(-c2c(C)nn3c(-c4cccc(Cl)c4)cc(N4CCC[C@H]4CO)nc23)cc1 [Example 171]
0.073	CCc1ccc(-c2c(C)nn3c(-c4cccc(C(F)(F)F)c4)cc(N4CCC[C@H]4CO)nc23)cc1 [Example 129]
0.096	Cc1nn2c(-c3ccccc3)cc(N3CCC[C@H]3CO)nc2c1-c1ccc(Cl)cc1 [Example 5]
0.12	COc1ccc(-c2c(C)nn3c(-c4cc(F)cc(F)c4)cc(N4CCC[C@H]4CO)nc23)cc1 [Example 45]
0.004	COCc1nn2c(-c3cccc(F)c3)cc(N3CCC[C@H]3CO)nc2c1-c1ccc(Cl)cc1 [Example 232]
0.12	Cc1nn2c(-c3cccc(C(F)(F)F)c3)cc(N3CCC[C@H]3CO)nc2c1-c1ccc(Cl)cc1 [Example 9]
0.12	Cc1nn2c(-c3cccc(C(F)(F)F)c3)cc(N3CCC[C@H]3CO)nc2c1-c1ccc(F)cc1F [Example 135]
0.008	CCCCc1nn2c(-c3cccc(C(F)(F)F)c3)cc(N3CCC[C@H]3CO)nc2c1-c1ccc(C)cc1 [Example 288]
0.05	CCc1nn2c(-c3ccc(F)cc3)cc(N3CCC[C@H]3CO)nc2c1-c1ccc(C)cc1 [Example 198, (S)-(1-(3-(4-methylphenyl)-7-(4-fluorophenyl)-2-ethylpyrazolo[1,5-a]pyrimidin-5-yl)pyrrolidin-2-yl)methanol]
0.21	CCc1cccc(-c2cc(N3CCC[C@H]3CO)nc3c(-c4ccc5c(c4)OCO5)c(C)nn23)c1 [Example 60]
0.03	CCOCc1nn2c(-c3cccc(C)c3)cc(N3CCC[C@H]3CO)nc2c1-c1ccc(OC)cc1 [Example 220]
0.39	COc1ccc(-c2c(C)nn3c(-c4ccc(F)c(F)c4)cc(N4CCC[C@H]4CO)nc23)cc1F [Example 187]

IC50 [µM]	SMILES
0.093	Cc1nn2c(-c3cccc(F)c3)cc(N3CCC[C@H]3CO)nc2c1-c1ccc(Cl)cc1 [Example 3]
0.018	COCc1nn2c(-c3cccc(Cl)c3)cc(N3CCC[C@H]3CO)nc2c1-c1ccc(OC)cc1 [Example 230]
0.1	Cc1ccc(-c2c(C)nn3c(-c4ccc(F)c(Cl)c4)cc(N4CCC[C@H]4CO)nc23)cc1 [Example 36]
0.14	Cc1ccc(-c2c(C)nn3c(-c4ccc(Cl)cc4)cc(N4CCC[C@H]4CO)nc23)cc1 [Example 32]
0.03	CCCCc1nn2c(-c3cccc(C)c3)cc(N3CCC[C@H]3CO)nc2c1-c1ccc(C)cc1 [Example 289]
0.31	CCc1ccc(-c2c(C)nn3c(-c4ccc(C)cc4)cc(N4CCC[C@H]4CO)nc23)cc1 [Example 182]
0.041	Cc1ccc(-c2c(C)nn3c(-c4ccc(F)cc4)cc(N4CCC[C@H]4CO)nc23)cc1 [Example 63, (S)-(1-(3-(4-methylphenyl)-7-(4-fluorophenyl)-2-methylpyrazolo[1,5-a]pyrimidin-5-yl)pyrrolidin-2-yl)methanol]
0.23	CCc1ccc(-c2c(C)nn3c(-c4ccc(F)cc4)cc(N4CCC[C@H]4CO)nc23)cc1 [Example 70]
0.1	Cc1nn2c(-c3cccc(Cl)c3)cc(N3CCC[C@H]3CO)nc2c1-c1ccc(Cl)cc1 [Example 2, (S)-(1-(3-(4-chlorophenyl)-7-(3-chlorophenyl)-2-methylpyrazolo[1,5-a]pyrimidin-5-yl)pyrrolidin-2-yl)methanol]
0.35	COc1ccc(-c2c(C)nn3c(-c4ccc(OC)cc4)cc(N4CCC[C@H]4CO)nc23)cc1 [Example 40]
0.24	COc1ccc(-c2cc(N3CCC[C@H]3CO)nc3c(-c4ccc(C)cc4)c(C)nn23)cc1 [Example 27]
0.3	Cc1ccccc1-c1cc(N2CCC[C@H]2CO)nc2c(-c3ccc(Cl)cc3)c(C)nn12 [Example 13]
0.14	OC[C@@H]1CCCN1c1cc(-c2ccc(F)cc2)n2nc(C3CC3)c(-c3ccc(Cl)cc3)c2n1 [Example 196, (S)-(1-(3-(4-chlorophenyl)-7-(4-fluorophenyl)-2-cyclopropylpyrazolo[1,5-a]pyrimidin-5-yl)pyrrolidin-2-yl)methanol]
0.15	Cc1nn2c(-c3ccc(F)c(Cl)c3)cc(N3CCC[C@H]3CO)nc2c1-c1ccc(F)cc1 [Example 192]
0.22	CCc1ccc(-c2c(C)nn3c(-c4cccc(Cl)c4)cc(N4CCC[C@H]4CO)nc23)cc1 [Example 174]
0.008	CCOCc1nn2c(-c3ccc(F)cc3)cc(N3CCC[C@H]3CO)nc2c1-c1ccc(Cl)cc1 [Example 206]
0.36	Cc1nn2c(-c3ccccc3F)cc(N3CCC[C@H]3CO)nc2c1-c1ccc(Cl)cc1 [Example 4]
0.21	Cc1cccc(-c2cc(N3CCC[C@H]3CO)nc3c(-c4ccc(Cl)cc4)c(C)nn23)c1 [Example 12]
